“And” between values parts separate entries of the source, which are not always exact repeats. Equal entries are not always repeated. Inconclusive results and toxic doses are left out. No stated cut-off is given here; in the data, active means T/C of 150% or more; inactive means T/C below 125%.
Tested on: L1210 leukemia ip in BDF1 mice, survival T/C
Assay: NCI In Vivo Anticancer Drug Screen. Data for tumor model L1210 Leukemia (intraperitoneal) in B6D2F1 (BDF1) mice
Settings: endpoint: mean survival time, higher = longer survival
In short: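 Survival endpoint. Drug-treated group vs vehicle group, expressed as T divided by C. Tumor passaged by transplantation.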

[1] = dose: 100.0 mg/kg/injection, schedule: Q01DX009 (ip), vehicle: saline with Tween-80
[2] = dose: 100.0 mg/kg/injection, schedule: Q04DX002 (ip), vehicle: saline with Tween-80
[3] = dose: 100.0 mg/kg/injection, schedule: Q04DX003 (ip), vehicle: saline with Tween-80
[4] = dose: 200.0 mg/kg/injection, schedule: Q01DX009 (ip), vehicle: saline with Tween-80
[5] = dose: 200.0 mg/kg/injection, schedule: Q04DX002 (ip), vehicle: saline with Tween-80
[6] = dose: 200.0 mg/kg/injection, schedule: Q04DX003 (ip), vehicle: saline with Tween-80
[7] = dose: 400.0 mg/kg/injection, schedule: Q01DX009 (ip), vehicle: saline with Tween-80
[8] = dose: 400.0 mg/kg/injection, schedule: Q04DX002 (ip), vehicle: saline with Tween-80
[9] = dose: 400.0 mg/kg/injection, schedule: Q04DX003 (ip), vehicle: saline with Tween-80
[10] = dose: 100.0 mg/kg/injection, schedule: Q01DX001 (ip), vehicle: other
[11] = dose: 200.0 mg/kg/injection, schedule: Q01DX001 (ip), vehicle: other
[12] = dose: 400.0 mg/kg/injection, schedule: Q01DX001 (ip), vehicle: other
[13] = dose: 100.0 mg/kg/injection, schedule: Q01DX001 (ip), vehicle: saline
[14] = dose: 100.0 mg/kg/injection, schedule: Q01DX009 (ip), vehicle: saline
[15] = dose: 100.0 mg/kg/injection, schedule: Q04DX003 (ip), vehicle: saline
[16] = dose: 200.0 mg/kg/injection, schedule: Q01DX001 (ip), vehicle: saline
[17] = dose: 400.0 mg/kg/injection, schedule: Q01DX001 (ip), vehicle: saline
[18] = dose: 100.0 mg/kg/injection, schedule: Q01DX009 (ip), vehicle: Klucel (hydroxypropylcellulose) (HPC)
[19] = dose: 200.0 mg/kg/injection, schedule: Q01DX009 (ip), vehicle: Klucel (hydroxypropylcellulose) (HPC)
[20] = dose: 400.0 mg/kg/injection, schedule: Q01DX009 (ip), vehicle: Klucel (hydroxypropylcellulose) (HPC)

Measured: T/C

CCCCC(CC)C1NC(=O)N(SC(Cl)(Cl)Cl)C1=O (stereo unspecified)
inactive: dose: 12.5 mg/kg/injection, schedule: Q01DX009 (ip), vehicle: saline with Tween-80 103 % of control | dose: 25.0 mg/kg/injection, schedule: Q01DX009 (ip), vehicle: saline with Tween-80 92 % of control | dose: 50.0 mg/kg/injection, schedule: Q01DX009 (ip), vehicle: saline with Tween-80 101 % of control and 106 % of control

O=C(Nc1ccccc1[N+](=O)[O-])Oc1ccc(-c2ccccc2)cc1
inactive: [1] 93 % of control and 105 % of control | [2] 103 % of control and 117 % of control | [3] 98 % of control | [4] 101 % of control and 92 % of control | [5] 107 % of control and 91 % of control | [6] 95 % of control | [7] 101 % of control and 103 % of control | [8] 101 % of control and 91 % of control | [9] 101 % of control

Cc1cc(C)c2[nH]c(=O)c(Br)c(C)c2c1
inactive: [10] 93 % of control | [11] 98 % of control | [12] 106 % of control

CCCCCCCCCCCCCCCCCC1=NCCN1
inactive: dose: 6.25 mg/kg/injection, schedule: Q01DX009 (ip), vehicle: Klucel (hydroxypropylcellulose) (HPC) 95 % of control | dose: 12.5 mg/kg/injection, schedule: Q01DX009 (ip), vehicle: Klucel (hydroxypropylcellulose) (HPC) 87 % of control | dose: 25.0 mg/kg/injection, schedule: Q01DX009 (ip), vehicle: Klucel (hydroxypropylcellulose) (HPC) 92 % of control | dose: 25.0 mg/kg/injection, schedule: Q04DX002 (ip), vehicle: Klucel (hydroxypropylcellulose) (HPC) 103 % of control | dose: 50.0 mg/kg/injection, schedule: Q01DX001 (ip), vehicle: other 91 % of control | dose: 50.0 mg/kg/injection, schedule: Q04DX002 (ip), vehicle: Klucel (hydroxypropylcellulose) (HPC) 103 % of control | [10] 97 % of control | dose: 100.0 mg/kg/injection, schedule: Q04DX002 (ip), vehicle: Klucel (hydroxypropylcellulose) (HPC) 95 % of control and 98 % of control | [11] 89 % of control | [12] 97 % of control

CNNC(=O)c1cccnc1
inactive: dose: 25.0 mg/kg/injection, schedule: Q01DX001 (ip), vehicle: saline 95 % of control | dose: 25.0 mg/kg/injection, schedule: Q01DX009 (ip), vehicle: saline 95 % of control and 98 % of control | dose: 25.0 mg/kg/injection, schedule: Q04DX003 (ip), vehicle: saline 105 % of control | dose: 50.0 mg/kg/injection, schedule: Q01DX001 (ip), vehicle: saline 100 % of control | dose: 50.0 mg/kg/injection, schedule: Q01DX009 (ip), vehicle: saline 95 % of control and 100 % of control | dose: 50.0 mg/kg/injection, schedule: Q04DX003 (ip), vehicle: saline 104 % of control | [13] 102 % of control | [14] 95 % of control and 98 % of control | [15] 98 % of control

Nc1nc(N)c(N=Nc2c(Br)cc(S(N)(=O)=O)cc2Br)c(=O)[nH]1
inactive: [13] 100 % of control | [16] 105 % of control | [17] 102 % of control

Cc1cc[n+](CCC(N)=O)cc1
inactive: [14] 95 % of control | [15] 93 % of control | dose: 200.0 mg/kg/injection, schedule: Q01DX009 (ip), vehicle: saline 93 % of control | dose: 200.0 mg/kg/injection, schedule: Q04DX003 (ip), vehicle: saline 98 % of control | dose: 400.0 mg/kg/injection, schedule: Q01DX009 (ip), vehicle: saline 93 % of control | dose: 400.0 mg/kg/injection, schedule: Q04DX003 (ip), vehicle: saline 102 % of control

CCOC(=O)CNC(=O)Nc1ccc(S(N)(=O)=O)cc1
inactive: [1] 95 % of control | [4] 96 % of control | [7] 96 % of control

Cc1cccc(C)c1NC(=O)Nc1ccc(C(=O)O)c(O)c1
inactive: [18] 110 % of control | [19] 95 % of control | [20] 97 % of control

CC1S(=O)(=O)CCS1(=O)=O
inactive: dose: 75.0 mg/kg/injection, schedule: Q01DX001 (ip), vehicle: saline with Tween-80 100 % of control | dose: 150.0 mg/kg/injection, schedule: Q01DX001 (ip), vehicle: saline with Tween-80 100 % of control | dose: 300.0 mg/kg/injection, schedule: Q01DX001 (ip), vehicle: saline with Tween-80 103 % of control

CC(=O)C(C)(C)O
inactive: [1] 90 % of control | [4] 87 % of control | [7] 92 % of control

O=P(NC12CC3CC(CC(C3)C1)C2)(Oc1ccccc1Cl)Oc1ccccc1Cl
inactive: [18] 101 % of control | [19] 101 % of control | [20] 95 % of control

C#CC(O)(c1ccccc1)c1ccc(N2CCOCC2)cc1 (stereo unspecified)
inactive: dose: 100.0 mg/kg/injection, schedule: Q04DX003 (ip), vehicle: Klucel (hydroxypropylcellulose) (HPC) 96 % of control | dose: 200.0 mg/kg/injection, schedule: Q04DX003 (ip), vehicle: Klucel (hydroxypropylcellulose) (HPC) 96 % of control | dose: 400.0 mg/kg/injection, schedule: Q04DX003 (ip), vehicle: Klucel (hydroxypropylcellulose) (HPC) 96 % of control

CCOC(=O)c1ccc(NC(=S)NC(=O)C(C)Oc2ccccc2)cc1 (stereo unspecified)
inactive: dose: 100.0 mg/kg/injection, schedule: Q01DX001 (ip), vehicle: saline with Tween-80 102 % of control | [1] 92 % of control and 103 % of control | [2] 93 % of control and 106 % of control | [3] 93 % of control | dose: 200.0 mg/kg/injection, schedule: Q01DX001 (ip), vehicle: saline with Tween-80 94 % of control | [4] 99 % of control and 112 % of control | [5] 93 % of control and 106 % of control | [6] 93 % of control | dose: 400.0 mg/kg/injection, schedule: Q01DX001 (ip), vehicle: saline with Tween-80 108 % of control | [7] 97 % of control and 100 % of control | [8] 92 % of control and 93 % of control

CN(C(=O)c1ccccc1Cl)C(c1ccco1)P(=O)(c1ccccc1)c1ccccc1 (stereo unspecified)
inactive: [1] 93 % of control | [2] 93 % of control | [4] 90 % of control | [5] 90 % of control | [7] 87 % of control | [8] 90 % of control

CC(SC(C)c1ccccc1)c1ccccc1 (stereo unspecified)
inactive: [1] 93 % of control | [3] 101 % of control | [4] 91 % of control | [6] 106 % of control | [9] 97 % of control

O=[N+]([O-])c1cc([N+](=O)[O-])c2nc3ccccn3c2c1
inactive: [1] 96 % of control | [4] 102 % of control | [7] 107 % of control

C=CCOC(=O)C(F)(F)F
inactive: dose: 100.0 mg/kg/injection, schedule: Q04DX002 (ip), vehicle: saline 89 % of control | dose: 200.0 mg/kg/injection, schedule: Q04DX002 (ip), vehicle: saline 86 % of control

Cc1ccc(-c2nnc3c4ccccc4ccn23)cc1
inactive: dose: 100.0 mg/kg/injection, schedule: Q01DX001 (ip), vehicle: carboxymethylcellulose (CMC) 93 % of control | dose: 200.0 mg/kg/injection, schedule: Q01DX001 (ip), vehicle: carboxymethylcellulose (CMC) 93 % of control | dose: 400.0 mg/kg/injection, schedule: Q01DX001 (ip), vehicle: carboxymethylcellulose (CMC) 91 % of control

CSc1nn(C)c[n+]1-c1ccccc1
inactive: [13] 105 % of control

CC(C)(C)C(=O)CC(=O)C(C)(C)C.CC(C)(C)C(=O)CC(=O)C(C)(C)C.CC(C)(C)C(=O)CC(=O)C(C)(C)C.[Gd]
inactive: [3] 101 % of control | [6] 101 % of control | [9] 92 % of control

CC(=O)Nc1ncc(/C=C/C=C/c2ccc([N+](=O)[O-])cc2)c(NC(C)=O)n1
inactive: dose: 100.0 mg/kg/injection, schedule: Q01DX001 (ip), vehicle: Klucel (hydroxypropylcellulose) (HPC) 91 % of control | dose: 200.0 mg/kg/injection, schedule: Q01DX001 (ip), vehicle: Klucel (hydroxypropylcellulose) (HPC) 86 % of control | dose: 400.0 mg/kg/injection, schedule: Q01DX001 (ip), vehicle: Klucel (hydroxypropylcellulose) (HPC) 87 % of control

CCCCNC(=O)n1ncc2ccc([N+](=O)[O-])cc21
inactive: [13] 105 % of control | [16] 105 % of control | [17] 102 % of control
